Here are results for seven substances from US5620954A, “Peptide compositions and uses therefor” (Magainin Pharmaceuticals, Inc., priority 1995, dated 1997).

Assay in all cases: Antibacterial assay, minimal inhibitory concentration (MIC), microtiter broth dilution
Format in all cases: cell-based
In general terms: Broth dilution looks for growth in wells or tubes with falling amounts of substance.

In experiment [1] the test system is S. aureus strain ATCC 25923. The following applies: S. aureus ATCC 25923; Mueller Hinton broth; 16-20 hours at 37° C. The source says:
(§1) Table I, which follows, indicates the Minimal Inhibitory Concentration (MIC) in μg/ml of Peptides (SEQ ID NO:1) through (SEQ ID NO:27 ) against S. aureus strain ATCC 25923, P. aeruginosa strain ATCC 27853, and E.coli ATCC strain 25922. (Legend) The procedure for the antibacterial assay is based upon the guidelines of the National Committee for Clinical Laboratory Standards, Document M7-T2, Volume 8, No. 8, 1988. Stock solutions of the hereinabove described peptides in accordance with the present invention are prepared at a concentration of 512 μg/ml in sterile deionized distilled water and stored at -70° C. The stock peptide solution is diluted in serial dilutions (1:2) down the wells of a microtiter plate so that the final concentrations of peptides in the wells are 0.25, 0.50, 1, 2, 4, 8, 16, 32, 64, 128, and 256 μg/ml. 1-5×10^5 CFUs/ml of either S. aureus ATCC 25923, E. coli ATCC 25922, or P. aeruginosa ATCC 27853 were added to the wells in full strength Mueller Hinton broth (BBL 11443) from a mid-log culture. The inoculum is standardized spectrophotometrically at 600 nm and is verified by colony counts. The plates are incubated for 16-20 hours at 37° C., and the minimal inhibitory concentration (MIC) for each peptide is determined. Minimal inhibitory concentration is defined as the lowest concentration of peptide which produces a clear well in the microtiter plate.

In experiment [2] the test system is P. aeruginosa strain ATCC 27853. The following applies: P. aeruginosa ATCC 27853; Mueller Hinton broth; 16-20 hours at 37° C.
Source text: as §1

Experiment [3] has as its system E.coli ATCC strain 25922. Particulars: E. coli ATCC 25922; Mueller Hinton broth; 16-20 hours at 37° C.
Source text: as §1

For “SEQ ID NO: 22: biologically active amphiphilic peptide (GFGSFLGKALKAALKIGANLLGGTPQQ)”, in experiment [1], the “Minimal Inhibitory Concentration (MIC), Activity, S. aureus” value came to 16 µg/mL. Besides, in experiment [2], the “Minimal Inhibitory Concentration (MIC), Activity, P. aeruginosa” value is reported as 16,32 μg/ml. Besides, the “Minimal Inhibitory Concentration (MIC), Activity, E. coli” value in experiment [3] was 8,16 μg/ml.
On the same counts, the results for “SEQ ID NO: 21: biologically active amphiphilic peptide (GLASLLGKALKAALKIGANMLGGSPQQ)” are 64 µg/mL, 128 µg/mL and 32 µg/mL.
“SEQ ID NO: 24: biologically active amphiphilic peptide (GFGKFLGKALKAALKIGANLLGGTPQQ)”: the “Minimal Inhibitory Concentration (MIC), Activity, S. aureus” value in experiment [1] was 8 µg/mL. For the same substance, the “Minimal Inhibitory Concentration (MIC), Activity, P. aeruginosa” value in experiment [2] was 16 µg/mL. For the same substance, the “Minimal Inhibitory Concentration (MIC), Activity, E. coli” value in experiment [3] was 8,16 μg/ml.
Regarding “SEQ ID NO: 23: biologically active amphiphilic peptide (GFAKFLGKALKAALKIGANLLGGTPQQ)”, the “Minimal Inhibitory Concentration (MIC), Activity, S. aureus” value in experiment [1] is 8 µg/mL. The “Minimal Inhibitory Concentration (MIC), Activity, P. aeruginosa” value in experiment [2] was 8,16 μg/ml. Besides, in experiment [3], the “Minimal Inhibitory Concentration (MIC), Activity, E. coli” value is given as 4,8 μg/ml.
In the same order, the values of “SEQ ID NO: 26: biologically active amphiphilic peptide (GLASFLGKALKAALKIGANLLGGTPQQ)” are 16,32 μg/ml, 64,128 μg/ml and 8,16 μg/ml.
On the same counts, the results for “SEQ ID NO: 27: biologically active amphiphilic peptide (GLASLLGKALKAALKIGANLLGGTPQQ)” are 32 µg/mL, 128 µg/mL and 32 µg/mL.
As to “SEQ ID NO: 25: biologically active amphiphilic peptide (GFKKFLGKALKAALKIGANLLGGTPQQ)”, the “Minimal Inhibitory Concentration (MIC), Activity, S. aureus” value in experiment [1] is given as 8,16 μg/ml. In addition, the “Minimal Inhibitory Concentration (MIC), Activity, P. aeruginosa” value in experiment [2] worked out at 32 µg/mL. In addition, the “Minimal Inhibitory Concentration (MIC), Activity, E. coli” value in experiment [3] is on record as 8,32 μg/ml.
